Common to all, as to test: ABPP chemical proteomics (LC-MS/MS) in HEK293T cells
Holding throughout (type): cell-based

One assay has as its target T1, DESI1 (Homo sapiens, UniProt Q6ICB0).
T1 construct: endogenous in cells; host or cells: HEK293T
T1 sequence (Q6ICB0 1-168): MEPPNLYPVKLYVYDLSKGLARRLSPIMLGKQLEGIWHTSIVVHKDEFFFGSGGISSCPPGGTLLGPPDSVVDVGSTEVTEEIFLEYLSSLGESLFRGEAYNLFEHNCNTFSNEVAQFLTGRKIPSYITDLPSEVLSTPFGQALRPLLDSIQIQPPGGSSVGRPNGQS
The method in brief:
(§1)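 Proteome-wide selectivity was profiled by competitive ABPP. Cells received […] and then activity-based probe for 1 h at 37 °C. Lysates were ligated to biotin capture tags, affinity-enriched and analysed by mass spectrometry.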

A further assay has as its target T2, ALDH2 (Homo sapiens, UniProt P05091).
T2 construct: endogenous in cells; host or cells: HEK293T
T2 sequence (P05091 18-517): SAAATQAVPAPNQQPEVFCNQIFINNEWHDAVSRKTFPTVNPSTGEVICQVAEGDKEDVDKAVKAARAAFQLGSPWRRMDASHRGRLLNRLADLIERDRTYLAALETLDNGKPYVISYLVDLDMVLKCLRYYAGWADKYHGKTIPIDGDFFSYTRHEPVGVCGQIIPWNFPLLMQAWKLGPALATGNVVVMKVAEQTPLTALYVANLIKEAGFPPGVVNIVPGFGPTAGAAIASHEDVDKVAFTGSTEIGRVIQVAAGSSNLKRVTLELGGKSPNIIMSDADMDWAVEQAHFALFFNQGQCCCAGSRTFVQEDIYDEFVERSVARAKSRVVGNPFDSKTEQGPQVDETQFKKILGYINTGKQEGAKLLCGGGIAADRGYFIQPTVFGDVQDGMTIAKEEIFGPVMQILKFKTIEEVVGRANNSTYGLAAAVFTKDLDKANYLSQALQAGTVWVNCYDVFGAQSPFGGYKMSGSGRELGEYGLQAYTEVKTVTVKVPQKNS
The procedure, abridged:
as §1

The target of a further assay is T3, ISOC1 (Homo sapiens, UniProt Q96CN7).
T3 construct: endogenous in cells; host or cells: HEK293T
T3 sequence (Q96CN7 1-298): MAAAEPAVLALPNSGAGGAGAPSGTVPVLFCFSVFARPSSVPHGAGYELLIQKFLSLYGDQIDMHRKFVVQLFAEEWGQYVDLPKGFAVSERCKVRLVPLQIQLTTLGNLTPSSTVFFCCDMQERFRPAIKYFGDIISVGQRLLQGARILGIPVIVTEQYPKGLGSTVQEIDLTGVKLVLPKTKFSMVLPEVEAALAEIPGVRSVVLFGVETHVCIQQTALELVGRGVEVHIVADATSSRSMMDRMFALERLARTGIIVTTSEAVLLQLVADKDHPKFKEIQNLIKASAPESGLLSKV
The procedure, abridged:
as §1

Where [1] appears, read: IMP-2586 labelling vs DMSO, 30 nM, 10 min, HEK293T (Table S4, Fig.5c).
Where [2] appears, read: IMP-2587 labelling vs DMSO, 30 nM, 10 min, HEK293T (Table S2, Fig.5a).
Setting [3] is: compound 1 out-competition with IMP-2587 labelling, HEK293T (Table S3, Fig.5b).
Setting [4] is: compound 3 out-competition with IMP-2586 labelling, HEK293T (Table S5, Fig.5d).

Regarding `N#CN1CC[C@@H](NC(=O)c2cc(-c3ccccc3Oc3ccc(N=[N+]=[N-])cc3)n[nH]2)C1` [IMP-2586], the “Difference (log2 fold change of enrichment)” value on DESI1 (setting [1]) is 3.04; at ALDH2 (setting [1]), 2.13; on ISOC1 (setting [1]), 1.71.
For the compound `C#Cc1cccc(-c2cc(NC(=O)CC3CCN(C#N)C3)on2)c1` (stereo not drawn) [IMP-2587], the “Difference (log2 fold change of enrichment)” value on DESI1 (setting [2]) was found to be 3.61; on ALDH2 (setting [2]) it was 3.49; at ISOC1 (setting [2]) it was 4.06.
As to `N#CN1CC[C@H](CC(=O)Nc2cc(-c3cccc(Cl)c3)no2)C1` [compound 1, reference compound], the figures for the “Difference (log2 fold change of enrichment)” value at DESI1 (setting [3]), on ALDH2 (setting [3]) and at ISOC1 (setting [3]) were -3.45, -3.07 and -3.50, respectively.
As to `N#CN1CC[C@@H](NC(=O)c2cc(-c3ccccc3Oc3ccccc3)n[nH]2)C1` [compound 3, reference compound], the “Difference (log2 fold change of enrichment)” value on DESI1 (setting [4]) is -2.81; at ALDH2 (setting [4]) it was -1.64; at ISOC1 (setting [4]), -1.80.

The values above are taken from PMC11078216, “Discovery of potent and selective activity-based probes (ABPs) for the deubiquitinating enzyme USP30” (RSC Chemical Biology, 2024).
